Test results published in patent publication EP2486923B1, “Histone deacetylase (HDAC) inhibiting compounds and method of making same” (Dr. Felix Jäger und Dr. Stefan Drinkuth Laborgemeinschaft …, priority 2011, dated 2012).
Where two headings read alike, the source gives them in different places.

Experiments:
Assay in all cases: Two-step fluorescence assay for determination of IC50
Assay type in all cases: biochemical
HDAC6 = target: T1, HDAC6 (Homo sapiens, UniProt Q9UBN7)
T1 sequence (Q9UBN7 1-1215): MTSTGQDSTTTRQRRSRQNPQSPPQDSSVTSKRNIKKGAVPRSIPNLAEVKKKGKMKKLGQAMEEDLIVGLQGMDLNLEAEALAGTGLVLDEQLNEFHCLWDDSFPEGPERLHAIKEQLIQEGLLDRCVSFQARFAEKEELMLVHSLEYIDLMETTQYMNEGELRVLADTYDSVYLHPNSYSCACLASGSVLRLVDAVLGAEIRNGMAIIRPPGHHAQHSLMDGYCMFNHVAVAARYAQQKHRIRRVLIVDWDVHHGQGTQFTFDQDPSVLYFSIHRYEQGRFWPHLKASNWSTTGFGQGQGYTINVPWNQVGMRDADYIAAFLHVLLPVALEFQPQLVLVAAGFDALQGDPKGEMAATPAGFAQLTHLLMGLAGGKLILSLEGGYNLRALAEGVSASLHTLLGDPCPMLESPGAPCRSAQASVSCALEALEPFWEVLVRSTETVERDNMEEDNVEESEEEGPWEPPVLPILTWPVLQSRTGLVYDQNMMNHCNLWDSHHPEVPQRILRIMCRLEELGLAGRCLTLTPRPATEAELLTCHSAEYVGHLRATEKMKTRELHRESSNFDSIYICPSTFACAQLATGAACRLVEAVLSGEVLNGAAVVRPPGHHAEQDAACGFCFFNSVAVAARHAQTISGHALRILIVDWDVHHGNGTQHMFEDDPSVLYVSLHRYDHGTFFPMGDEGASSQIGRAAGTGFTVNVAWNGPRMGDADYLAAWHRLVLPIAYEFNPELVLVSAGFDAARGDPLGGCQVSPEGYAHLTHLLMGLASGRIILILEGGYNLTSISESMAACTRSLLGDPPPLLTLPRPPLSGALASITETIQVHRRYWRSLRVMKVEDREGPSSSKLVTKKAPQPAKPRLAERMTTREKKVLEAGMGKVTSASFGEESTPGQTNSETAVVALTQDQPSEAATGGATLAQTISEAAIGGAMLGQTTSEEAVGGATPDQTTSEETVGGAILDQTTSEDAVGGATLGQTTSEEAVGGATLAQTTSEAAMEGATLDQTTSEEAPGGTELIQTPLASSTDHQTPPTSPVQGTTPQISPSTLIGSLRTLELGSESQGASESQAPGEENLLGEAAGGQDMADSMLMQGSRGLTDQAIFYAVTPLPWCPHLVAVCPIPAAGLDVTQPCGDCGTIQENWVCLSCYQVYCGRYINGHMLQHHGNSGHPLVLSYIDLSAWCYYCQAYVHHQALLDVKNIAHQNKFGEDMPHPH
Procedure: (§1) In order to evaluate the inhibitory characteristics of example compounds of the invention, IC50 values were determined for such compounds. […] A two-step assay was used for this purpose.
(§2) To obtain the IC50 value for an individual compound/HDAC pair, a two-step assay can be performed based on a fluorescence signal. In principle, an ε-acetylated lysine substrate is deacetylated by histone-deacetylases in the first step. Trypsin releases detectable 7-amino-4-methylcoumarin (ex = excitation wavelength: 390 nm, em = emission wavelength: 460 nm) by cleaving the substrate at the deacetylated lysine in a subsequent reaction^[9]. The enzyme activity is inhibited by a suitable HDACi.
(§3) The obtained data are interpreted using a four parameter fit. Based on this fit, the IC50 value can be estimated. Analysis ot the data and calculation of the IC50 values was accomplished using a four-parameter logistic model protocol as previously described by Vølund^[16]. For nonlinear fits the Levenberg-Marquardt algorithm was applied^[17],[18]. […] Table 1: IC50 values in µM for synthesized compounds of the invention with a perfluorinated linker. […] HDAH = HDAC-like amidohydrolase

HDAC7 = target: T2, HDAC7 (Homo sapiens, UniProt Q8WUI4)
T2 sequence (Q8WUI4 1-952): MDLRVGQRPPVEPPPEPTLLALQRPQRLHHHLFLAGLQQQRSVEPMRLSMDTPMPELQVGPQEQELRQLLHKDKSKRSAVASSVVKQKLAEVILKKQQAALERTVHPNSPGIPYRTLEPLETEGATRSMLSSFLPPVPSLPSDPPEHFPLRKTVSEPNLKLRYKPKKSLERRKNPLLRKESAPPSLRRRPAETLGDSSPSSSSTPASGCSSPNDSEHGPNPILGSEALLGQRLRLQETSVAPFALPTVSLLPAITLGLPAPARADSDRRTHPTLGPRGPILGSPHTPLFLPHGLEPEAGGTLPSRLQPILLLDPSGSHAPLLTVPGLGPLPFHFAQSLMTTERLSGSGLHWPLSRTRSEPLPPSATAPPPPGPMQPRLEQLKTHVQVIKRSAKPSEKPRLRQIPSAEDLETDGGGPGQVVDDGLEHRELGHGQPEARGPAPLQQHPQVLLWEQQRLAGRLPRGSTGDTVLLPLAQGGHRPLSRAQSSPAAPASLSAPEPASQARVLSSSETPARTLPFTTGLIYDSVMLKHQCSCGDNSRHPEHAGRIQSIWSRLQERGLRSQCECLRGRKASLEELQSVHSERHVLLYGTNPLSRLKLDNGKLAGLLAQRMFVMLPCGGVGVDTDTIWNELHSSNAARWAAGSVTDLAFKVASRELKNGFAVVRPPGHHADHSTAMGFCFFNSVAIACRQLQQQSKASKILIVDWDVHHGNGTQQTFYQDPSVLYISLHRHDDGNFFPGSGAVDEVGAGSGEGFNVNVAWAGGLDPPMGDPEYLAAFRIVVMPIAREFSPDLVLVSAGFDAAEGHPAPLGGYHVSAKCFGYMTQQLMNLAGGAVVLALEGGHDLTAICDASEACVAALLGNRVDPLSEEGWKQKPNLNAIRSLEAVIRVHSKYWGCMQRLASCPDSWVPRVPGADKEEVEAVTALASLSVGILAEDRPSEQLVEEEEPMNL
Procedure: as §1, §2, §3

HDAC1 = HDAC1 (Homo sapiens, UniProt Q13547)
Procedure: as §1, §2, §3

HDAH = target: T3, HDAH (Alcaligenes sp., UniProt Q70I53)
T3 sequence (Q70I53 1-369): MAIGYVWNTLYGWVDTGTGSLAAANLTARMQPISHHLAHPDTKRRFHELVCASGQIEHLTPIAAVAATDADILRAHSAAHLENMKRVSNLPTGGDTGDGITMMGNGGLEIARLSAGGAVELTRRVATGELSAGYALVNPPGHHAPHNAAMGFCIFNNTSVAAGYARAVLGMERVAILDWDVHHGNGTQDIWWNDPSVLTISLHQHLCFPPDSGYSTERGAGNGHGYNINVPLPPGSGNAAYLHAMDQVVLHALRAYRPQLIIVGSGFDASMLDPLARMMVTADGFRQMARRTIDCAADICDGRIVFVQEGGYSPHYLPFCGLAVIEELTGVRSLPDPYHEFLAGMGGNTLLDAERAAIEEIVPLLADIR
Procedure: as §1, §2, §3

HDAC8 = target: T4, HDAC8 (Homo sapiens, UniProt Q9BY41)
T4 sequence (Q9BY41 1-377): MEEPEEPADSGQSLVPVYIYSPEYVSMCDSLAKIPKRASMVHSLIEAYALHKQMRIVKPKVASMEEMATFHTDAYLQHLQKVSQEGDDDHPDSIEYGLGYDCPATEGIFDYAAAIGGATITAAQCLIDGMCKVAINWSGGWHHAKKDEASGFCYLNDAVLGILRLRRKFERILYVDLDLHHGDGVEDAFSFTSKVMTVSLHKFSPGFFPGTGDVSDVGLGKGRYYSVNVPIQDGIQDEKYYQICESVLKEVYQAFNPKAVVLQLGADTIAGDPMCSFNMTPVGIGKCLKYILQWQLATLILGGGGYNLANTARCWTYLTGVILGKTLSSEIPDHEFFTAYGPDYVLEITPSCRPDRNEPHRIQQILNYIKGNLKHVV
Procedure: as §1, §2, §3

[1] = ε-acetylated lysine substrate, trypsin release of 7-amino-4-methylcoumarin, four parameter fit, read-out: IC50 values HDAC6
[2] = ε-acetylated lysine substrate, trypsin release of 7-amino-4-methylcoumarin, four parameter fit, read-out: IC50 values HDAC7
[3] = ε-acetylated lysine substrate, trypsin release of 7-amino-4-methylcoumarin, four parameter fit, read-out: IC50 values HDAC1
[4] = ε-acetylated lysine substrate, trypsin release of 7-amino-4-methylcoumarin, four parameter fit, read-out: IC50 values HDAC8

Sequence of HDAC1 (Q13547 whole entry): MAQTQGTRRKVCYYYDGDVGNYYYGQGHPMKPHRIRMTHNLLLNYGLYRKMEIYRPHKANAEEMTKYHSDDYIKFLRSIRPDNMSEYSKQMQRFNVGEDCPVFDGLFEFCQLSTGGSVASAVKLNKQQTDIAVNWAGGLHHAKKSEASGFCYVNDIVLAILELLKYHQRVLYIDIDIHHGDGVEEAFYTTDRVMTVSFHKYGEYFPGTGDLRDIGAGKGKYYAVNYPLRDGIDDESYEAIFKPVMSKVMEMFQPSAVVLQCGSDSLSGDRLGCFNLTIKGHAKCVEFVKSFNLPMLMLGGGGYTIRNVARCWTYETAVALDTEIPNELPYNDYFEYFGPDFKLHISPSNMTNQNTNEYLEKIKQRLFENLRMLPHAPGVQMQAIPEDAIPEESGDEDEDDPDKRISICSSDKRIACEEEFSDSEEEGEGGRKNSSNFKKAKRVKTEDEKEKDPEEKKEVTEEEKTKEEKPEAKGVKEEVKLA

## N#Cc1ccc(NC(=O)C(F)(F)C(F)(F)C(F)(F)C(F)(F)C(F)(F)C(F)(F)C(=O)NO)cc1 [LU225 A, 2,2,3,3,4,4,5,5,6,6,7,7-Dodecafluorooctanedioic acid (4-cyanophenyl)amide hydroxyamide]
HDAC6; [1]
  IC50: > 100 µM
HDAC7; [2]
  IC50: 53.7 µM
HDAC1; [3]
  IC50: 21.8 µM
HDAH
  IC50: 0.7 µM
HDAC8; [4]
  IC50: 73.9 µM

## O=C(NO)C(F)(F)C(F)(F)C(F)(F)C(F)(F)C(F)(F)C(F)(F)C(=O)Nc1ccc(-c2ccccc2)cc1 [LU229, 2,2,3,3,4,4,5,5,6,6,7,7-Dodecafluorooctanedioic acid biphenyl-4-ylamide hydroxyamide]
HDAC6; [1]
  IC50: 59.1 µM
HDAC7
  IC50: 22 µM
HDAC1; [3]
  IC50: 37.9 µM
HDAH; HDAC-like amidohydrolase, ε-acetylated lysine substrate, trypsin release of 7-amino-4-methylcoumarin, four parameter fit, read-out: IC50 values HDAH
  IC50: 0.78 µM
HDAC8; [4]
  IC50: > 100 µM

## O=C(NO)C1CCCCC1C(=O)Nc1ccccc1 (centres unmarked) [RK216, reference compound]
HDAC6
  IC50: 44 µM
HDAC7
  IC50: > 100 µM
HDAC1
  IC50: > 100 µM
HDAH
  IC50: 34.8 µM
HDAC8
  IC50: > 100 µM

## O=C(NO)C(F)(F)C(F)(F)C(F)(F)C(F)(F)C(F)(F)C(F)(F)C(=O)Nc1ccc(Cl)cc1 [LU223, 2,2,3,3,4,4,5,5,6,6,7,7-Dodecafluorooctanedioic acid (4-chlorophenyl)amide hydroxyamide]
HDAC6
  IC50: 26.3 µM
HDAC7; [2]
  IC50: 26.8 µM
HDAC1; [3]
  IC50: 15.1 µM
HDAH
  IC50: 0.72 µM
HDAC8; [4]
  IC50: 73 µM
